Patent publication US20100129290A1, “SMART CONTRAST AGENT AND DETECTION METHOD FOR DETECTING TRANSITION METAL IONS” (I.S.T. corporation, priority 2008, published 2010)
Where no end group is shown, it is not given here. The star is where a group is joined. dabcyl = dabcyl quencher on the Lys side chain, CN(C)c1ccc(/N=N/c2ccc(C(=O)*)cc2)cc1; K(FAM) = lysine with FAM attached to its side chain

Tests used:
[1] = tested on: endogenous β-amyloid peptides; details: cerebrospinal fluid; read-out: EC50 for conversion of endogenous β-amyloid peptides into insoluble aggregates; cited from earlier work
[2] = Fluorescence (FRET) titration with copper(II) ions; assay type: binding; details: for effect of the mutation on copper binding: mutant versus P1P
[3] = Fluorescence (FRET) titration with zinc(II) ions; assay type: binding; details: for effect of the mutation on zinc binding: mutant versus P1P
[4] = Fluorescence (FRET) titration with calcium(II) ions; assay type: binding
[5] = Fluorescence (FRET) titration with magnesium(II) ions; assay type: binding
[6] = Fluorescence (FRET) titration with gadolinium(III) ions; assay type: binding; details: for Gd^+3 binding, effect on FRET activity: 10 μM peptide, pH dependence
[7] = 1H longitudinal relaxivity (NMRD); assay type: physicochemical; details: salt only, 50 mM NEM, pH=7.0, 20 MHz
Description: Smart contrast agents with larger relaxivity values imply lower MRI detection limits for the target species and are advantageous over contrast agents with lower relaxivity values.
The incubation was conducted in the dark, at room temperature, and lasted for 3 hours. The longitudinal relaxivity was measured at field strengths between 0.01 MHz to 20 MHz. […] The underlining mechanisms responsible for the observed behavior have not been well characterized to date, but likely contain contributions from several factors including gadolinium-copper ion exchange, alterations in peptide solubility, peptide structural rearrangements, remaining synthesis impurities, and buffer interactions with both copper and gadolinium ions.

Aβ accumulation = details: transgenic mice; cited from earlier work

Molecule | effect of the mutation on copper binding [2] | effect of the mutation on zinc binding [3] | binding with Ca^+2 [4] | binding with Mg^+2 [5] | Gd^+3 binding, effect on FRET activity [6] | further results
[Zn+2] [zinc ions] |  |  |  |  |  | EC50 [1]: 120 to 140 µM
K(FAM)PHGGGAGQK(dabcyl) ({K(FAM)}-PHGGGAGQK(dabcyl)) [P16, mutant version of P1P, tryptophan to alanine] | significant effect | significant effect | No binding | No binding | marked increase in Gd^+3 binding with increasing pH | 
O=S(=O)([O-])[O-].[Cu+2] [CuSO4] |  |  |  |  |  | relaxivity [7]: 0.4 mM⁻¹ s⁻¹
[Cl][Gd]([Cl])[Cl] [GdCl3] |  |  |  |  |  | relaxivity [7]: 5.1 mM⁻¹ s⁻¹
Oc1c(I)cc(Cl)c2cccnc12 [clioquinol] |  |  |  |  |  | inhibition of Aβ accumulation (Aβ accumulation): significant inhibition of Aβ accumulation
K(FAM)PAGGGWGQK(dabcyl) ({K(FAM)}-PAGGGWGQK(dabcyl)) [P17, mutant version of P1P, histidine to alanine] | most critical | most critical | No binding | No binding | marked increase in Gd^+3 binding with increasing pH | 
K(FAM)PHGGGWGAK(dabcyl) ({K(FAM)}-PHGGGWGAK(dabcyl)) [P18, mutant version of P1P, glutamine to alanine] | either had no effect, or even increased the peptide binding strength | either had no effect, or even increased the peptide binding strength | No binding | No binding | marked increase in Gd^+3 binding with increasing pH | effect of the mutation on binding affinity for copper ([2]; pH ≦7): little effect; effect of the mutation on binding activity with copper ([2]; pH=7.6): increase the binding activity; effect of the mutation on binding affinity for zinc ([3]; pH ≦7): little effect; effect of the mutation on binding activity with zinc ([3]; pH=7.6): increase the binding activity; effect of the mutation on affinity of Gd^+3 ions ([6]; versus base P1P peptide): reduce the affinity
